# Key:
# Test in all cases: relative viability (nuclei count vs DMSO), 5 days (fraction); higher = more cells survive
# LCLC-97TM1 = system: LCLC-97TM1
# Method in brief: (§1)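 Relative viability divides the nuclei count in treated wells by that in vehicle wells. Lung cancer cell lines were seeded in 1536-well plates, dosed by pin tool the next day, and fixed and stained after 5 days in one step with final 0.05% Triton X-100, 1% formaldehyde and 1 ug/ml Hoechst. Dosing was a single drug or a fixed anchor-drug dose plus five library-drug doses (not always all listed) in √10 steps, and values are medians of duplicate plates imaged at 4×.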
# NCI-H2347 = system: NCI-H2347
# Method in brief: as §1
# EMC-BAC-2 = system: EMC-BAC-2
# Method in brief: as §1
# NCI-H1734 = system: NCI-H1734
# Method in brief: as §1
# NCI-H322M = system: NCI-H322M
# Method in brief: as §1
# HOP-62 = system: HOP-62
# Method in brief: as §1
# LXF-289 = system: LXF-289
# Method in brief: as §1
# SW 1573 = system: SW 1573
# Method in brief: as §1
# NCI-H661 = system: NCI-H661
# Method in brief: as §1
# EPLC-272H = system: EPLC-272H
# Method in brief: as §1
# H3255 = system: H3255
# Method in brief: as §1
# NCI-H647 = system: NCI-H647
# Method in brief: as §1
# NCI-H1915 = system: NCI-H1915
# Method in brief: as §1
# NCI-H2126 = system: NCI-H2126
# Method in brief: as §1
# NCI-H2023 = system: NCI-H2023
# Method in brief: as §1
# NCI-H2085 = system: NCI-H2085
# Method in brief: as §1
# NCI-H2009 = system: NCI-H2009
# Method in brief: as §1
# PC-14 = system: PC-14
# Method in brief: as §1
# NCI-H1563 = system: NCI-H1563
# Method in brief: as §1
# SK-LU-1 = system: SK-LU-1
# Method in brief: as §1
# NCI-H1993 = system: NCI-H1993
# Method in brief: as §1
smiles,measurement,setting,value
CCN(CC)CCCCNc1ncc2cc(-c3cc(OC)cc(OC)c3)c(NC(=O)NC(C)(C)C)nc2n1 + Nc1nc2[nH]cc(CCc3ccc(C(=O)N[C@@H](CCC(=O)O)C(=O)O)cc3)c2c(=O)[nH]1 [Pemetrexed] (partner 0.2 µM),relative viability,LCLC-97TM1; first compound 0.01 µM,0.174
same,relative viability,LCLC-97TM1; first compound 0.03162 µM,0.185
same,relative viability,LCLC-97TM1; first compound 0.1 µM,0.174
same,relative viability,LCLC-97TM1; first compound 0.3162 µM,0.159
same,relative viability,LCLC-97TM1; first compound 1 µM,0.189
same,relative viability,NCI-H2347; first compound 0.01 µM,0.419
same,relative viability,NCI-H2347; first compound 0.03162 µM,0.555
same,relative viability,NCI-H2347; first compound 0.1 µM,0.423
same,relative viability,NCI-H2347; first compound 0.3162 µM,0.412
same,relative viability,NCI-H2347; first compound 1 µM,0.382
same,relative viability,EMC-BAC-2; first compound 0.03162 µM,0.46
same,relative viability,EMC-BAC-2; first compound 0.1 µM,0.491
same,relative viability,EMC-BAC-2; first compound 0.3162 µM,0.479
same,relative viability,EMC-BAC-2; first compound 1 µM,0.489
same,relative viability,NCI-H1734; first compound 0.01 µM,0.405
same,relative viability,NCI-H1734; first compound 0.03162 µM,0.387
same,relative viability,NCI-H1734; first compound 0.1 µM,0.418
same,relative viability,NCI-H1734; first compound 0.3162 µM,0.409
same,relative viability,NCI-H1734; first compound 1 µM,0.384
same,relative viability,NCI-H322M; first compound 0.01 µM,0.612
same,relative viability,NCI-H322M; first compound 0.03162 µM,0.591
same,relative viability,NCI-H322M; first compound 0.1 µM,0.735
same,relative viability,NCI-H322M; first compound 0.3162 µM,0.642
same,relative viability,NCI-H322M; first compound 1 µM,0.567
same,relative viability,HOP-62; first compound 0.01 µM,0.33
same,relative viability,HOP-62; first compound 0.03162 µM,0.275
same,relative viability,HOP-62; first compound 0.1 µM,0.362
same,relative viability,HOP-62; first compound 0.3162 µM,0.314
same,relative viability,HOP-62; first compound 1 µM,0.351
same,relative viability,LXF-289; first compound 0.01 µM,0.923
same,relative viability,LXF-289; first compound 0.03162 µM,1.02
same,relative viability,LXF-289; first compound 0.1 µM,0.907
same,relative viability,LXF-289; first compound 0.3162 µM,0.884
same,relative viability,LXF-289; first compound 1 µM,0.849
same,relative viability,SW 1573; first compound 0.01 µM,0.858
same,relative viability,SW 1573; first compound 0.03162 µM,0.843
same,relative viability,SW 1573; first compound 0.1 µM,1.08
same,relative viability,SW 1573; first compound 0.3162 µM,0.944
same,relative viability,SW 1573; first compound 1 µM,0.832
same,relative viability,NCI-H661; first compound 0.01 µM,0.968
same,relative viability,NCI-H661; first compound 0.03162 µM,0.886
same,relative viability,NCI-H661; first compound 0.1 µM,0.961
same,relative viability,NCI-H661; first compound 0.3162 µM,0.986
same,relative viability,NCI-H661; first compound 1 µM,0.95
same,relative viability,EPLC-272H; first compound 0.01 µM,0.386
same,relative viability,EPLC-272H; first compound 0.03162 µM,0.271
same,relative viability,EPLC-272H; first compound 0.1 µM,0.334
same,relative viability,EPLC-272H; first compound 0.3162 µM,0.317
same,relative viability,EPLC-272H; first compound 1 µM,0.26
same,relative viability,H3255; first compound 0.01 µM,0.626
same,relative viability,H3255; first compound 0.03162 µM,0.568
same,relative viability,H3255; first compound 0.1 µM,0.615
same,relative viability,H3255; first compound 0.3162 µM,0.632
same,relative viability,H3255; first compound 1 µM,0.513
same,relative viability,NCI-H647; first compound 0.01 µM,0.188
same,relative viability,NCI-H647; first compound 0.03162 µM,0.127
same,relative viability,NCI-H647; first compound 0.1 µM,0.157
same,relative viability,NCI-H647; first compound 0.3162 µM,0.161
same,relative viability,NCI-H647; first compound 1 µM,0.136
same,relative viability,NCI-H1915; first compound 0.01 µM,0.511
same,relative viability,NCI-H1915; first compound 0.03162 µM,0.521
same,relative viability,NCI-H1915; first compound 0.1 µM,0.558
same,relative viability,NCI-H1915; first compound 0.3162 µM,0.518
same,relative viability,NCI-H1915; first compound 1 µM,0.445
same,relative viability,NCI-H2126; first compound 0.01 µM,0.646
same,relative viability,NCI-H2126; first compound 0.03162 µM,0.764
same,relative viability,NCI-H2126; first compound 0.1 µM,0.644
same,relative viability,NCI-H2126; first compound 0.3162 µM,0.661
same,relative viability,NCI-H2126; first compound 1 µM,0.749
same,relative viability,NCI-H2023; first compound 0.01 µM,0.264
same,relative viability,NCI-H2023; first compound 0.03162 µM,0.225
same,relative viability,NCI-H2023; first compound 0.1 µM,0.323
same,relative viability,NCI-H2023; first compound 0.3162 µM,0.264
same,relative viability,NCI-H2023; first compound 1 µM,0.219
same,relative viability,NCI-H2085; first compound 0.01 µM,0.882
same,relative viability,NCI-H2085; first compound 0.03162 µM,0.898
same,relative viability,NCI-H2085; first compound 0.1 µM,0.894
same,relative viability,NCI-H2085; first compound 0.3162 µM,1.02
same,relative viability,NCI-H2085; first compound 1 µM,0.86
same,relative viability,NCI-H2009; first compound 0.01 µM,1.12
same,relative viability,NCI-H2009; first compound 0.03162 µM,1.03
same,relative viability,NCI-H2009; first compound 0.1 µM,1.08
same,relative viability,NCI-H2009; first compound 0.3162 µM,1.18
same,relative viability,NCI-H2009; first compound 1 µM,0.988
same,relative viability,PC-14; first compound 0.01 µM,0.123
same,relative viability,PC-14; first compound 0.03162 µM,0.117
same,relative viability,PC-14; first compound 0.1 µM,0.184
same,relative viability,PC-14; first compound 0.3162 µM,0.139
same,relative viability,PC-14; first compound 1 µM,0.141
same,relative viability,NCI-H1563; first compound 0.01 µM,0.72
same,relative viability,NCI-H1563; first compound 0.03162 µM,0.601
same,relative viability,NCI-H1563; first compound 0.1 µM,1.02
same,relative viability,NCI-H1563; first compound 0.3162 µM,0.737
same,relative viability,NCI-H1563; first compound 1 µM,0.633
same,relative viability,SK-LU-1; first compound 0.01 µM,0.971
same,relative viability,SK-LU-1; first compound 0.03162 µM,0.93
same,relative viability,SK-LU-1; first compound 0.1 µM,1.1
same,relative viability,SK-LU-1; first compound 0.3162 µM,1.18
same,relative viability,SK-LU-1; first compound 1 µM,0.854
same,relative viability,NCI-H1993; first compound 0.01 µM,0.57
same,relative viability,NCI-H1993; first compound 0.03162 µM,0.583
same,relative viability,NCI-H1993; first compound 0.1 µM,0.652
same,relative viability,NCI-H1993; first compound 0.3162 µM,0.689
same,relative viability,NCI-H1993; first compound 1 µM,0.707

# — the supplement of paper PMC10307832
